Reference: patent US9765092B2, “Tricyclic piperidine compounds” (ACTELION PHARMACEUTICALS LTD, priority 2013, dated 2017)
Like-named read-outs stand apart in the source and are kept apart here.

Biological target: human TPH1 (Homo sapiens (Human), UniProt P17752)
Assay: Biochemical in vitro assay using fluorescence readout (TPH1 inhibition)
[1] = human TPH1, fluorescence readout
[2] = full length human TPH1, 40 μM L-tryptophan, 15° C., 60 minutes, fluorescence at 540 nm, mean if determined several times

human TPH1, sequence (P17752 whole entry): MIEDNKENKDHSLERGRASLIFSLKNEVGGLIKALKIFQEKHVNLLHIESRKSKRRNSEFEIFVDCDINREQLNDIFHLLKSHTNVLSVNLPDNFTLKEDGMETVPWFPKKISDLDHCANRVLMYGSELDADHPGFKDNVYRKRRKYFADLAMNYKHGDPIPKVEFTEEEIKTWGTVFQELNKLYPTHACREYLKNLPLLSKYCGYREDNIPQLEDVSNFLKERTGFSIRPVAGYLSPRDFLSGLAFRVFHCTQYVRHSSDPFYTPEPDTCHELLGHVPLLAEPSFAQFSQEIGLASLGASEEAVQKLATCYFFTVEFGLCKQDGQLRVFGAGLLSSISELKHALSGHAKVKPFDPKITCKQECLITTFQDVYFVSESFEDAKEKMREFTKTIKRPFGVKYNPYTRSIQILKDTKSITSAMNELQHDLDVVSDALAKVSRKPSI

| Compound | IC50 [1] | also measured |
| --- | --- | --- |
| Cc1nn2c3c(nc2s1)CCN(C(=O)COc1ccc(C(F)(F)F)nc1)C3c1ccc(C2CC2)cc1F (stereo not shown) [Example 1.6.4, 1-(5-(4-cyclopropyl-2-fluorophenyl)-2-methyl-7,8-dihydro-[1,3,4]thiadiazolo[2′,3′:2,3]imidazo[4,5-c]pyridin-6(5H)-yl)-2-((6-(trifluoromethyl)pyridin-3-yl)oxy)ethanone] | 68 nM | – |
| CCc1ncccc1OCC(=O)N1CCc2nc3sc(C)nn3c2C1c1ccc(Cl)cc1F (stereo not shown) [Example 1.4.5, 1-(5-(4-chloro-2-fluorophenyl)-2-methyl-7,8-dihydro-[1,3,4]thiadiazolo[2′,3′:2,3]imidazo[4,5-c]pyridin-6(5H)-yl)-2-((2-ethylpyridin-3-yl)oxy)ethanone] | 13 nM | – |
| CNC(=O)c1cc(F)c(C2c3c(nc4sc(C)nn34)CCN2C(=O)COc2ccc(C(F)(F)F)nc2Cl)s1 (stereo not shown) [Example 1.25.3, 5-(6-(2-((2-chloro-6-(trifluoromethyl)pyridin-3-yl)oxy)acetyl)-2-methyl-5,6,7,8-tetrahydro-[1,3,4]thiadiazolo [2′,3′:2,3]imidazo[4,5-c]pyridin-5-yl)-4-fluoro-N-methylthiophene-2-carboxamide] | 35 nM | – |
| Cc1nn2c3c(nc2s1)CCN(C(=O)COc1ccc(C(=O)NC2CC2)nc1Cl)C3c1ccc(C(C)(C)O)cc1F (stereo not shown) [Example 1.80.2, 6-chloro-N-cyclopropyl-5-(2-(5-(2-fluoro-4-(2-hydroxypropan-2-yl)phenyl)-2-methyl-7,8-dihydro-[1,3,4]thiadiazolo[2′,3′:2,3]imidazo[4,5-c]pyridin-6(5H)-yl)-2-oxoethoxy)picolinamide] | 65 nM | – |
| Cc1nn2c3c(nc2s1)CCN(C(=O)COc1ccc(C2CC2)cc1Cl)C3c1ccc(Cl)cc1F (stereo not shown) [Example 1.4.34, 1-(5-(4-Chloro-2-fluorophenyl)-2-methyl-7,8-dihydro-[1,3,4]thiadiazolo[2′,3′:2,3]imidazo[4,5-c]pyridin-6(5H)-yl)-2-(2-chloro-4-cyclopropylphenoxy)-ethanone] | – | IC50 [2]: 4 nM |
| Cc1nn2c3c(nc2s1)CCN(C(=O)COc1ccc(C(=O)N(C)C)nc1Cl)C3c1ccc(C)c(F)c1F (stereo not shown) [Example 1.61.1, 6-chloro-5-(2-(5-(2,3-difluoro-4-methylphenyl)-2-methyl-7,8-dihydro-[1,3,4]thiadiazolo[2′,3′:2,3]imidazo[4,5-c]pyridin-6(5H)-yl)-2-oxoethoxy)-N,N-dimethylpicolinamide] | 7 nM | – |
| CCN(CC)C(=O)c1cc(F)c(C2c3c(nc4sc(C)nn34)CCN2C(=O)COc2ccc(NS(C)(=O)=O)nc2Cl)s1 (stereo not shown) [Example 1.64.1, 5-(6-(2-((2-chloro-6-(methylsulfonamido)pyridin-3-yl)oxy)acetyl)-2-methyl-5,6,7,8-tetrahydro-[1,3,4]thiadiazolo [2′,3′:2,3]imidazo[4,5-c]pyridin-5-yl)-N,N-diethyl-4-fluorothiophene-2-carboxamide] | 21 nM | – |
| O=C(COc1ccc(CN2CCOCC2)nc1Cl)N1CCc2nc3sccn3c2C1c1cc2cccnc2s1 (stereo not shown) [Example 6.14.4, 2-((2-chloro-6-(morpholinomethyl)pyridin-3-yl)oxy)-1-(5-(thieno[2,3-b]pyridin-2-yl)-7,8-dihydrothiazolo-[2′,3′:2,3]imidazo[4,5-c]pyridin-6(5H)-yl)ethanone] | 38 nM | – |
| Cc1cc(Cl)ccc1OCC(=O)N1CCc2nc3sccn3c2C1c1c(C)noc1C (stereo not shown) [Example 6.5.4, 2-(4-chloro-2-methylphenoxy)-1-(5-(3,5-dimethylisoxazol-4-yl)-7,8-dihydrothiazolo[2′,3′:2,3]imidazo[4,5-c]-pyridin-6(5H)-yl)ethanone] | 27 nM | – |
| Cc1cnc(C2c3c(nc4sc(C)nn34)CCN2C(=O)COc2ccc(N3CCOCC3)nc2Cl)c(F)c1 (stereo not shown) [Example 1.31.2, 2-((2-chloro-6-morpholinopyridin-3-yl)oxy)-1-(5-(3-fluoro-5-methylpyridin-2-yl)-2-methyl-7,8-dihydro-[1,3,4]thiadiazolo [2′,3′:2,3]imidazo[4,5-c]pyridin-6(5H)-yl)ethanone] | 5 nM | – |
| Cc1nn2c3c(nc2s1)CCN(C(=O)COc1ccc(C(F)(F)F)cc1Cl)C3c1cc(C(=O)N(C)C)cs1 (stereo not shown) [Example 1.9.3, 5-(6-(2-(2-Chloro-4-(trifluoromethyl)phenoxy)acetyl)-2-methyl-5,6,7,8-tetrahydro-[1,3,4]thiadiazolo[2′,3′:2,3]imidazo[4,5-c]pyridin-5-yl)-N,N-dimethylthiophene-3-carboxamide] | – | IC50 [2]: 77 nM |
| Cc1ccc(C2c3c(nc4sc(C)nn34)CCN2C(=O)COc2ccc(NS(C)(=O)=O)nc2Cl)c(F)c1 (stereo not shown) [Example 1.53.2, N-(6-chloro-5-(2-(5-(2-fluoro-4-methylphenyl)-2-methyl-7,8-dihydro-[1,3,4]thiadiazolo[2′,3′:2,3]imidazo[4,5-c]pyridin-6(5H)-yl)-2-oxoethoxy)pyridin-2-yl)methanesulfonamide] | – | IC50: 12 nM |
| COc1ccc(C2c3c(nc4sccn34)CCN2C(=O)COc2ccc(Cl)cc2Cl)cc1OC (stereo not shown) [Example 6.1.3, 2-(2,4-dichlorophenoxy)-1-(5-(3,4-dimethoxyphenyl)-7,8-dihydrothiazolo[2′,3′:2,3]imidazo[4,5-c]pyridin-6(5H)-yl)ethanone] | 7 nM | – |
| CNC(=O)c1ccc(OCC(=O)N2CCc3nc4sc(C)nn4c3C2c2sc(C(=O)N(C)C)cc2F)c(Cl)n1 (stereo not shown) [Example 1.24.10, 6-chloro-5-(2-(5-(5-(dimethylcarbamoyl)-3-fluoro-thiophen-2-yl)-2-methyl-7,8-dihydro-[1,3,4]thiadiazolo[2′,3′:2,3]imidazo[4,5-c]pyridin-6(5H)-yl)-2-oxoethoxy)-N-methylpicolinamide] | 20 nM | – |
| Cc1nn2c3c(nc2s1)CCN(C(=O)COc1cccnc1C)C3c1ccc(C2CC2)cc1F (stereo not shown) [Example 1.6.6, 1-(5-(4-cyclopropyl-2-fluorophenyl)-2-methyl-7,8-dihydro-[1,3,4]thiadiazolo[2′,3′:2,3]imidazo[4,5-c]pyridin-6(5H)-yl)-2-((2-methylpyridin-3-yl)oxy)ethanone] | 25 nM | – |
| Cc1nn2c3c(nc2s1)CCN(C(=O)COc1ccc(S(N)(=O)=O)nc1Cl)C3c1ccc(Cl)cc1F (stereo not shown) [Example 1.4.12, 6-Chloro-5-(2-(5-(4-chloro-2-fluorophenyl)-2-methyl-7,8-dihydro-[1,3,4]thiadiazolo[2′,3′:2,3]imidazo[4,5-c]pyridin-6(5H)-yl)-2-oxoethoxy)pyridine-2-sulfonamide] | – | IC50 [2]: 57 nM |
| Cc1nn2c3c(nc2s1)CCN(C(=O)COc1cccnc1F)C3c1ccc(C2CC2)cc1F (stereo not shown) [Example 1.6.5, 1-(5-(4-cyclopropyl-2-fluorophenyl)-2-methyl-7,8-dihydro-[1,3,4]thiadiazolo[2′,3′:2,3]imidazo[4,5-c]pyridin-6(5H)-yl)-2-((2-fluoropyridin-3-yl)oxy)ethanone] | 89 nM | – |
| Cc1nn2c3c(nc2s1)CCN(C(=O)COc1cccnc1Cl)C3c1cnc(N2CCOCC2)s1 (stereo not shown) [Example 1.7.3, 2-((2-chloropyridin-3-yl)oxy)-1-(2-methyl-5-(2-morpholinothiazol-5-yl)-7,8-dihydro-[1,3,4]thiadiazolo [2′,3′:2,3]imidazo[4,5-c]pyridin-6(5H)-yl)ethanone] | 338 nM | – |
| CCc1nc(C(=O)NC2CC2)ccc1OCC(=O)N1CCc2nc3sc(CF)nn3c2C1c1sc(C)nc1C (stereo not shown) [Example 7.4.1, N-cyclopropyl-5-(2-(5-(2,4-dimethylthiazol-5-yl)-2-(fluoromethyl)-7,8-dihydro-[1,3,4]thiadiazolo[2′,3′:2,3]imidazo[4,5-c]pyridin-6(5H)-yl)-2-oxoethoxy)-6-ethylpicolinamide] | 7 nM | – |
